Experimental data from patent publication US20030129684A1, “Method for detecting fungicides” (priority 2000, published 2003).

Experiments:
Rhodotorula rubra [1] = assay: Bioautographic detection of various fungicides on TLC plate, staining with optical brightener, evaluation at 366 nm; type: cell-based; parameters: key to Zone of inhibition 2 ppb / Zone of inhibition 500 ppt / Zone of inhibition 100 ppt: −: no zone of inhibition; +: small zone of inhibition; ++: clearly visible zone of inhibition; settings: for Zone of inhibition 2 ppb / Zone of inhibition 100 ppt / Zone of inhibition 500 ppt: optical brightener, 366 nm, 20 hours incubation
Protocol: The evaluation is carried out by staining with optical brightener (0.04% of Blankophor® BA 267% from Bayer AG, Germany, in 0.1 mol/l NaOH solution). To this end, the TLC plate is dried, wetted with the stain solution and subsequently stored for 5 minutes at room temperature. The evaluation is carried out at 366 nm. The zones of inhibition are evident as dark spots against a fluorescent background.

Rhodotorula rubra [2] = settings: fluorescence extinction at 254 nm; result in words
Protocol: 200 ml of deionised water, 10 g of Sabouraud 2% glucose broth and 0.11 g of Gelrite® are boiled until sterile. The test organism is then added in the form of a lyophilisate or living culture and pre-incubated for 3 hours at 35° C.
The developed TLC plate is dipped briefly into the fungal suspension, and excess suspension is removed from the base of the plate. The TLC plate is subsequently incubated for 20 hours at room temperature in a can lined with moist paper.
The evaluation is carried out by fluorescence extinction at 254 nm.

Compound | Zone of inhibition 2 ppb (Rhodotorula rubra [1]) | Zone of inhibition 100 ppt (Rhodotorula rubra [1]) | Zone of inhibition 500 ppt (Rhodotorula rubra [1]) | Detection limit (Rhodotorula rubra [1]; also printed as 2 μg/kg) | Detection limit (Rhodotorula rubra [1]; also printed as 500 ng/kg) | zone of inhibition with Rf about 1.0 (Rhodotorula rubra [2]) | zone of inhibition on the starting line (Rf=0) (Rhodotorula rubra [2])
CC(Cc1ccc(C(C)(C)C)cc1)CN1C[C@@H](C)O[C@@H](C)C1 (some centres unmarked) [A1, fenpropimorph] | ++ | − | − | 2 ppb (2 μg/kg) |  |  | 
C[Si](Cn1cncn1)(c1ccc(F)cc1)c1ccc(F)cc1 [A2, flusilazole] | ++ | − | + |  | 500 ppt (500 ng/kg) |  | 
CCCC1COC(Cn2cncn2)(c2ccc(Cl)cc2Cl)O1 (centres unmarked) [A3, propiconazole] | ++ | − | + |  | 500 ppt (500 ng/kg) |  | 
CCC[CH2][Sn]([Cl])([CH2]CCC)[CH2]CCC [F1, Tributyltin Chloride] |  |  |  |  |  | evident | 
CCC[CH2][Sn]([Cl])([CH2]CCC)[CH2]CCC [F2, Tributyltin Chloride] |  |  |  |  |  |  | evident
